Reference: patent US20110117169A1, “METHODS AND COMPOSITIONS FOR CAPTURE OF CELLS” (AFFINERGY, INC., priority 2009, published 2011)
Each block holds one sequence with its values, some of them ahead of it. Ends that are not written are not given here.

Assays:
[1] = test system: human MSCs (mixed with IM-9 and U937 cells); experiment: Capture of MSCs from a mixed cell population with peptide on CELLECTION magnetic beads; format: cell-based; details: starting mixture 38% IM9, 56% U937, 4% MSC
Excerpt: In this experiment, biotinylated cell binding peptide, SEQ ID NO: 16, was attached to CELLECTION magnetic beads. The CELLECTION beads have streptavidin coupled to a magnetic particle through a DNA linker. Three different cell types, human MSCs, IM-9, and U937 cells were differentially labeled with […] dye and mixed in a ratio such that the MSCs represented ˜4% of the starting cell mixture (the percentage of each cell type in the starting mixture was 38% IM9, 56% U937, and 4% MSC). The cell binding peptide, SEQ ID NO: 16, was biotinylated as described herein at Example 2, as was a general cell binding peptide for use as a control peptide in the experiment. Magnetic particles with no peptide attached, as well as magnetic beads having attached either the cell binding peptide, SEQ ID NO: 16, or the control peptide were tested for their ability to capture human MSCs. The starting cell mixture was incubated with magnetic beads having either attached peptide or no peptide, the beads were washed, and the captured cells were released from the beads by DNase treatment. The cells were measured by flow cytometry histograms shown in 18A-18C. The magnetic beads without peptide captured little or no cells (FIG. 18B). The magnetic beads with attached cell binding peptide SEQ ID NO: 16 captured a cell population that was 96% MSCs (FIG. 18C).

TGF-β3 = biological target: T1, TGF-β3 (Homo sapiens, UniProt P10600); experiment: ELISA-type binding of growth factor to biotinylated peptide on streptavidin plates; details: peptide 0.2 μM on streptavidin plate, TGF-β3 1 μM-1 nM
T1 sequence (P10600 301-412 limits assumed): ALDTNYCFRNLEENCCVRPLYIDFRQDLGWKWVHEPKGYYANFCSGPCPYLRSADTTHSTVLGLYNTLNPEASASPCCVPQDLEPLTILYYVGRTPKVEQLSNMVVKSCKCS
Excerpt: Peptides that bind TGF-β3 were identified by phage display biopanning. Recombinant human TGF-β3 (rhTGF-β3) was biotinylated and immobilized on streptavidin-coated microtiter plates. Twenty-two different phage display libraries were used for the selection. Enrichment of target-binding phage in the selection was monitored using an ELISA-type assay with an HRP-conjugated anti-M13 antibody. After enrichment for TGF-β3 specific phage, individual phage were picked, propagated on E. coli, and tested for binding to TGF-β3. Over 20 individual phage were isolated that bound TGF-β3. […] The TGF-β3-binding peptide sequences were then synthesized using standard solid-phase peptide synthesis techniques on a Symphony Peptide Synthesizer (PROTEIN TECHNOLOGIES, Tucson, Ariz.) using standard Fmoc chemistry as described herein above at Example 2. Biotinylated peptides were generated similarly, with a GSSGK(biotin) sequence added to the C-terminus of the peptide.
The TGF-β binding peptides with the biotin moiety on their C-terminus were tested for their ability to bind the target growth factor using the following methods. Streptavidin-coated plates were first prepared by generating a 1:100 dilution of streptavidin (1 mg/mL) in 0.1M NaHCO3 buffer. […] To reveal immunoreactivity, 100 μL of para-nitrophenyl phosphate solution was added to each well, and optical density was recorded on a spectrophotometer.

[2] = test system: human umbilical vein endothelial cells (HUVECs); experiment: Biotinylated peptide binding to endothelial and other cells, flow cytometry; details: biotinylated peptide 10 μM, 30 min at 4° C.
Description: (§1) The synthetic biotinylated binding peptide SEQ ID NO: 4 was further examined for its ability to bind endothelial cells compared to other cell types (see FIG. 16). […] ECFCs are clonally expanded cells isolated from human umbilical cord blood, and are considered highly proliferative endothelial progenitor cells (EPCs) based on their clonogenic and proliferative potential. In another experiment, binding peptide SEQ ID NO: 4 was assayed for its ability to selectively isolate endothelial cells versus smooth muscle cells in the presence of whole blood. HUVECs or UASMCs were incubated in the presence of medium containing 20% whole blood and binding peptide SEQ ID NO: 4-conjugated magnetic beads (via biotin-SA) for 30 min. The solutions containing the bead-peptide-cell complexes were then passed through a […] LS column in a magnetic field. The column was washed, and the remaining peptide-bound cells were then released from the magnetic field and counted.

[3] = test system: umbilical artery smooth muscle cells (UASMCs); experiment: as above; details: biotinylated peptide 10 μM, 30 min at 4° C.
Description: as §1

[4] = test system: human ASCs (adipose-derived mesenchymal stem cells); experiment: Biotinylated peptide cell binding specificity, flow cytometry with Neutravidin-PE; details: 25 μM solution, 30 min at 4° C.
Excerpt: (§2) The synthetic biotinylated cell binding peptide SEQ ID NO: 4 was examined for its ability to specifically bind MSCs compared to a number of other cells types including adipose-derived mesenchymal stem cells (ASCs), dermal fibroblasts, rodent MSCs, red blood cells, monocytes, lymphocytes and granulocytes. The cell binding peptide was biotinylated as described herein at Example 2. Cultured cells of each type were either purchased (ASCs and dermal fibroblasts) or isolated from rodent bone marrow (rodent MSCs) or human blood. Cells were first harvested and resuspended at 10^6/mL in PBS+2% fetal bovine serum (FBS). An aliquot of cells (50 μL) was incubated in 50 μL of peptide solution (25 μM in PBS+FBS) for 30 min at 4° C. Cells were then washed twice in PBS+FBS with 300×g centrifugation for 5 min between washes. Fluorescently-tagged neutravidin (Neutravidin-PE from INVITROGEN) was then added to the cells to label biotinylated peptide bound to cells. Neutravidin-PE was diluted 1:250 from stock and applied at 50 μL to cells. Cells were then washed in PBS+FBS, and acquired on a BD […]. Peptide reactivity was then measured as percent positivity relative to Neutravidin-PE staining without the addition of biotinylated peptide.

human MSCs = experiment: as above; details: 25 μM solution, 30 min at 4° C.
Excerpt: as §2

dermal fibroblasts = experiment: as above; design: species or system human; details: 25 μM solution, 30 min at 4° C.
Excerpt: as §2

[5] = test system: endothelial colony forming cells (ECFCs); experiment: Biotinylated peptide binding to endothelial and other cells, flow cytometry; design: species or system human; details: biotinylated peptide 10 μM, 30 min at 4° C.
Description: as §1

Sequence: SSFRFGPLGTWNYPSTDNAE (also: biotin, site not given here) [SEQ ID NO: 16, tested biotinylated]
MSCs in captured cell population [1]: 96%

binding affinity for TGF-β3 (TGF-β3): best binding affinity
Sequence: SSCNNLSVCTFDKIIERNRSSR (SSCNNLSVCTFDKIIERNRSSRGSSG-{K(biotin)}; cysteine pairing not given here) [SEQ ID NO: 21, tested with C-terminal GSSGK(biotin)]

Sequence: SSFWDVCQGDGTCYGGGSR (SSFWDVCQGDGTCYGGGSRGSSG-{K(biotin)}; cysteine pairing not given here) [SEQ ID NO: 4, tested biotinylated (C-terminal GSSGK(biotin) or other spacer)]
cross-reactivity with HUVECs [2]: cross-reacted strongly
cross-reactivity with UASMCs [3]: weakly
binding to human ASCs (percent positivity relative to Neutravidin-PE staining) [4]: high binding
binding to human MSCs (percent positivity relative to Neutravidin-PE staining) (human MSCs): high binding
binding to dermal fibroblasts (percent positivity relative to Neutravidin-PE staining) (dermal fibroblasts): high binding
cross-reactivity with ECFCs [5]: cross-reacted strongly
